The source of these data is patent publication US9573887B2, “Naphthalene derivative” (Daito Chemix Corporation, priority 2010, dated 2017).

The IC50 is the concentration that inhibits the measured activity by half.

Structures can show the parent of a compound that is named as a salt. Where only a bound is given, the exact number is not on record here.

One experiment deals with T1, Mouse VCP (Mus musculus, UniProt Q01853).
T1 construct: histidine tag (N); made in house; host or cells: Sf-9 insect cells (baculovirus vector pVL1392)
T1 sequence (Q01853 whole entry): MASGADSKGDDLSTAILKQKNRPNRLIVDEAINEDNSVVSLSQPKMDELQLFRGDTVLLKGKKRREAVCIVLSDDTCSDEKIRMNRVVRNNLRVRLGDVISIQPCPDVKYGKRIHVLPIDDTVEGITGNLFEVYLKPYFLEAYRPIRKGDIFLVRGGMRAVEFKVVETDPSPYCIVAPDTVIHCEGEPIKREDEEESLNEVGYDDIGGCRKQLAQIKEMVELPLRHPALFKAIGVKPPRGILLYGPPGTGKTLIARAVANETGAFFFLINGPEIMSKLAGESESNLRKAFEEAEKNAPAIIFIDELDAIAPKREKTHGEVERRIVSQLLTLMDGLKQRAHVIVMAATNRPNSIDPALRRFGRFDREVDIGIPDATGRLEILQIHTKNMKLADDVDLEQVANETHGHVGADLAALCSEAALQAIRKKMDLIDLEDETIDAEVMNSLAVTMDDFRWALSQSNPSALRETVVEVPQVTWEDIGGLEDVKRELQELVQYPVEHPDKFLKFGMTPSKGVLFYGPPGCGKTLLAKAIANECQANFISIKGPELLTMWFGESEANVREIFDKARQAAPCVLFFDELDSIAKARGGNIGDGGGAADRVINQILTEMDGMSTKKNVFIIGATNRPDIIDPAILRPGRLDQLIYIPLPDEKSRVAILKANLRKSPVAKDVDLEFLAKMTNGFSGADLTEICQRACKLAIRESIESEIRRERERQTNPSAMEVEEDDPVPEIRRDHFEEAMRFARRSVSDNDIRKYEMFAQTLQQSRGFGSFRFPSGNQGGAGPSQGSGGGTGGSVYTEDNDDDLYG
Put plainly: ATPase activity of purified His-tagged VCP, [γ-32P]ATP, liberated phosphate by liquid scintillation. The conditions noted are these: compounds of Comparative Examples; determined in the same manner as the Examples. It counts as biochemical. How it is done: In one aspect, the effect of VCP regulators for regulating ATPase activity is determined, for example by the following exemplary assay. Mouse VCP cDNA (the amino acid sequence is completely identical among mouse, rat and human) is added with a DNA sequence corresponding to a histidine tag at the amino-terminal, subcloned into a baculovirus vector pVL1392 (BD Bioscience), and expressed in Sf-9 insect cells. The protein is purified with a nickel column. After the purification the concentration of the protein is adjusted to 0.25-0.5 μg/ml and the protein is stored in a solution containing 50 mM TrisCl pH 8.0, 5 mM EDTA, 10% glycerol, and 15 mM DTT at 4° C. 500 ng of the purified VCP is mixed with 100 μM [γ-^32P]ATP (18.5 GBq/mmol) and the test substance in 20 μL of ATPase buffer (20 mM HEPES (pH7.4), 50 mM KCl, 5 mM MgCl2, 15 mM DTT), and incubated at 37° C. for 10 minutes. The enzyme reaction is stopped with addition of 200 μL of an ice-cold solution containing 7% TCA and 1 mM K2HPO4. 50μ of a solution containing 3.75% ammonium molybdate and 0.02M tungstate silicic/3 N H2SO4 is added, followed by 300 μL of n-butylacetic acid, and then the liberated phosphate is extracted into the organic layer. The reaction tube is centrifuged for 5 minutes at 20,000 g to separate the aqueous layer and the organic layer, 200 μL of the organic layer is taken, and the beta ray radiated from the liberated phosphate is quantified with liquid scintillation counter. By measuring the ATPase activity in the presence of the test substance at various concentrations, ATPase inhibitory activity of the test substance is measured.
Mouse VCP cDNA was added with a DNA sequence corresponding to histidine tag at the amino-terminal, subcloned into a baculovirus vector pVL1392 (BD Bioscience), and expressed in Sf-9 insect cells. The protein was purified with a nickel column (GE Healthcare). The concentration of the protein was adjusted to 0.25-0.5 μg/ml and the protein was stored in a solution containing 50 mM TrisCl pH 8.0, 5 mM EDTA, 10% glycerol, and 15 mM DTT.
The ATPase activity was determined as follows. 500 ng of the purified VCP was mixed with 100 μM [γ-32P]ATP (18.5 GBq/mmol) and the test substance in 20 μL of ATPase buffer (20 mM HEPES (pH7.4), 50 mM KCl, 5 mM MgCl2, 15 mM DTT), and incubated at 37° C. for 10 minutes.
The enzyme reaction was stopped with addition of 200 μL of an ice-cold solution containing 7% TCA and 1 mM K2HPO4. 50μ of a solution containing 3.75% ammonium molybdate and 0.02M tungstate silicic/3 NH2SO4 was added, followed by 300 μL of n-butylacetic acid, and then the liberated phosphate was extracted into the organic layer. The reaction tube was centrifuged for 5 minutes at 20,000 g to separate the aqueous layer and the organic layer, 200 μL of the organic layer was taken, and the beta ray radiated from the liberated phosphate was quantified with liquid scintillation counter.
By measuring the ATPase activity in the presence of the test substance at various concentrations, ATPase inhibitory activity of the test substance was measured. IC50 of the each test substance was calculated by applying the measured values to the equation below using GraphPad Prism (GraphPad Software).
With `Nc1ccc(/N=N/c2ccccc2)c2ccc(S(=O)(=O)O)cc12` [Example 2, sodium salt], the half-inhibitory concentration (IC50) is above 10000 nM.
With `Nc1ccc(S(=O)(=O)O)c2ccccc12` [Example 20, sodium salt], the IC50 was above 10000 nM.
The same measure, in the same setting: to `N#Cc1cc(/N=N/c2ccc(-c3ccccc3)nc2)c(N)c2ccccc12` [Example 12, sodium salt] belongs above 10000 nM.

The same experiment, now with this note: compounds of Examples; ATPase inhibitory activity; 500 ng VCP, 100 μM ATP, 37° C., 10 minutes.
As to `Nc1c(/N=N/c2c(Cl)cc(Cl)cc2Cl)cc(S(=O)(=O)O)c2ccccc12` [Example 115, 4-amino-3-(2,4,6-trichlorophenylazo)naphthalene-1-sulfonic acid sodium salt], the IC50 came to 297 nM.
With `Nc1c(/N=N/c2ccc(-c3ccc(C(F)(F)F)cc3)nc2)cc(S(=O)(=O)O)c2ccccc12` [Example 21, 4-amino-3-[6-(4-trifluoromethylphenyl)pyridine-3-ylazo]naphthalene-1-sulfonic acid sodium salt], the IC50 amounted to 445 nM.
For the compound `CCOc1c(C=O)cc(C)cc1-c1ccc(/N=N/c2cc(S(=O)(=O)O)c3ccccc3c2N)cn1` [Example 149, 4-amino-3-[6-(2-ethoxy-3-formyl-5-methylphenyl)pyridine-3-ylazo]naphthalene-1-sulfonic acid sodium salt], the 50% inhibitory concentration (IC50) was 182 nM.
For `Nc1c(/N=N/c2ccc(F)cc2)cc(S(=O)(=O)O)c2ccccc12` [Example 102, 4-amino-3-(4-fluorophenylazo)naphthalene-1-sulfonic acid sodium salt], the half-maximal inhibitory concentration (IC50) was determined as 904 nM.
For `Nc1c(/N=N/c2ccc(-c3csc4ccccc34)nc2)cc(S(=O)(=O)O)c2ccccc12` [Example 41, 4-amino-3-(6-benzo[b]thiophene-3-ylpyridine-3-ylazo)naphthalene-1-sulfonic acid sodium salt], the concentration for half-maximal inhibition (IC50) came to 210 nM.
`Cc1cc(F)ccc1-c1ncc(/N=N/c2cc(S(=O)(=O)O)c3ccccc3c2N)cc1C` [Example 79, 4-amino-3-[6-(4-fluoro-2-methylphenyl)-5-methylpyridine-3-ylazo]naphthalene-1-sulfonic acid sodium salt]: the IC50 amounted to 798 nM.
As to `Nc1c(/N=N/c2ccc(OCc3cccnc3)nc2)cc(S(=O)(=O)O)c2ccccc12` [Example 3, 3-(2-pyridinomethoxy-5-pyridinoazo)-4-amino-1-naphthalenesulfonic acid sodium salt], the half-inhibitory concentration (IC50) came to 281 nM.
Same read-out and setting: to `Nc1c(/N=N/c2ccc(-c3ccccc3-c3ccccc3)nc2)cc(S(=O)(=O)O)c2ccccc12` [Example 12, 4-amino-3-(6-biphenyl-2-ylpyridine-3-ylazo)naphthalene-1-sulfonic acid sodium salt] belongs 116 nM.
On the same count and under the same terms, to `COC(=O)c1sccc1/N=N/c1cc(S(=O)(=O)O)c2ccccc2c1N` [Example 146, methyl 3-(1-amino-4-sulfonaphthalene-2-ylazo)thiophene-2-carboxylate sodium salt] belongs 1290 nM; to `Nc1c(/N=N/c2ccc(-c3ccccc3)nc2)cc(S(=O)(=O)O)c2ccccc12` [Example 7, 4-amino-3-(6-phenylpyridine-3-ylazo)naphthalene-1-sulfonic acid sodium salt], 229 nM; to `COc1ccccc1-c1ccc(/N=N/c2cc(S(=O)(=O)O)c3ccccc3c2N)cn1` [Example 25, 4-amino-3-[6-(2-methoxyphenyl)pyridine-3-ylazo]naphthalene-1-sulfonic acid sodium salt], 300 nM.
On to `Nc1c(/N=N/c2ccc(-c3ccccc3Oc3ccccc3)nc2)cc(S(=O)(=O)O)c2ccccc12` [Example 29, 4-amino-3-[6-(2-phenoxyphenyl)pyridine-3-ylazo]naphthalene-1-sulfonic acid sodium salt], for which the IC50 is 287 nM.
Still for that read-out and setting: the figure for `Nc1c(/N=N/c2cnc3ccccc3c2)cc(S(=O)(=O)O)c2ccccc12` [Example 145, 4-amino-3-(quinoline-3-ylazo)naphthalene-1-sulfonic acid sodium salt] is 295 nM.
Consider `Nc1c(/N=N/c2ccc(-c3cccc(Cl)c3)nc2)cc(S(=O)(=O)O)c2ccccc12` [Example 23, 4-amino-3-[6-(3-chlorophenyl)pyridine-3-ylazo]naphthalene-1-sulfonic acid sodium salt], for which the half-inhibitory concentration (IC50) is 324 nM.
On the same count and under the same terms, to `CCCOc1ccccc1-c1ccc(/N=N/c2cc(S(=O)(=O)O)c3ccccc3c2N)cn1` [Example 48, 4-amino-3-[6-(2-propoxyphenyl)pyridine-3-ylazo]naphthalene-1-sulfonic acid sodium salt] belongs 127 nM; to `COc1cccc(-c2ccc(/N=N/c3cc(S(=O)(=O)O)c4ccccc4c3N)cn2)c1` [Example 32, 4-amino-3-[6-(3-methoxyphenyl)pyridine-3-ylazo]naphthalene-1-sulfonic acid sodium salt], 428 nM; to `Nc1c(/N=N/c2ccc(-c3cccc4ccccc34)nc2)cc(S(=O)(=O)O)c2ccccc12` [Example 38, 4-amino-3-(6-naphthalene-1-ylpyridine-3-ylazo)naphthalene-1-sulfonic acid sodium salt], 234 nM.
Still for that read-out and setting: to `N#Cc1cccc(-c2ccc(/N=N/c3cc(S(=O)(=O)O)c4ccccc4c3N)cn2)c1` [Example 44, 4-amino-3-[6-(3-cyanophenyl)pyridine-3-ylazo]naphthalene-1-sulfonic acid sodium salt] belongs 584 nM; to `COc1cc([N+](=O)[O-])ccc1/N=N/c1cc(S(=O)(=O)O)c2ccccc2c1N` [Example 121, 4-amino-3-(2-methoxy-4-nitrophenylazo)naphthalene-1-sulfonic acid sodium salt], 2560 nM.
Still for that read-out and setting: to `Nc1c(/N=N/c2cccnc2-c2ccccc2)cc(S(=O)(=O)O)c2ccccc12` [Example 50, 4-amino-3-(2-phenylpyridine-3-ylazo)naphthalene-1-sulfonic acid sodium salt] belongs 468 nM; to `N#Cc1ccc(/N=N/c2cc(S(=O)(=O)O)c3ccccc3c2N)cc1` [Example 107, 4-amino-3-(4-cyanophenylazo)naphthalene-1-sulfonic acid sodium salt], 540 nM.
As to `Nc1c(/N=N/c2cccc(F)c2)cc(S(=O)(=O)O)c2ccccc12` [Example 101, 4-amino-3-(3-fluorophenylazo)naphthalene-1-sulfonic acid sodium salt], the half-maximal inhibitory concentration (IC50) was 1760 nM.
Turning to `Cc1cc(C=O)c(OC(C)C)c(-c2ccc(/N=N/c3cc(S(=O)(=O)O)c4ccccc4c3N)cn2)c1` [Example 91, 4-amino-3-[6-(3-formyl-2-isopropoxy-5-methylphenyl)pyridine-3-ylazo]naphthalene-1-sulfonic acid sodium salt], the concentration for half-maximal inhibition (IC50) amounted to 212 nM.
Still for that read-out and setting: the figure for `CC(C)COc1ccccc1-c1ccc(/N=N/c2cc(S(=O)(=O)O)c3ccccc3c2N)cn1` [Example 67, 4-amino-3-[6-(2-isobutoxyphenyl)pyridine-3-ylazo]naphthalene-1-sulfonic acid sodium salt] is 130 nM.
Same read-out and setting: to `CSc1ccc(/N=N/c2cc(S(=O)(=O)O)c3ccccc3c2N)cc1` [Example 134, 4-amino-3-(4-methylsulfanylphenylazo)naphthalene-1-sulfonic acid sodium salt] belongs 327 nM; to `Nc1c(/N=N/c2ccc(C(=O)c3ccccc3)cc2)cc(S(=O)(=O)O)c2ccccc12` [Example 131, 4-amino-3-(4-benzoylphenylazo)naphthalene-1-sulfonic acid sodium salt], 242 nM; to `COc1ccc(-c2ccc(/N=N/c3cc(S(=O)(=O)O)c4ccccc4c3N)cn2)cc1` [Example 26, 4-amino-3-[6-(4-methoxyphenyl)pyridine-3-ylazo]naphthalene-1-sulfonic acid sodium salt], 304 nM.
